A short description of the data set: Stability during drying. The class given is physicochemical. The settings on record: temperatures up to about 40-45° C. As to the method: In certain embodiments, Form A of the free base of Compound I is stable during drying at temperatures up to about 40-45° C. In certain embodiments, the crystallization and/or recrystallization of Form A of the free base of Compound I provides an effective means of purification by removing or reducing the levels of chemical impurities (such as, e.g., one or more of the chemical compounds provided in FIG. 14) in the resulting material. In certain embodiments, Form A of the free base of Compound I is substantially pure. […] In certain embodiments, Form A of the free base of Compound I is stable upon compression.
Crude 4-[9-(tetrahydro-furan-3-yl)-8-(2,4,6-trifluoro-phenylamino)-9H-purin-2-ylamino]-cyclohexan-1-ol (“Compound I”) (5 g) was dissolved in ethanol (35 ml, 7 vol) at reflux (78-82° C.). Water (75 ml, 15 vol) was added, maintaining the temperature above 75° C. The solution was seeded (0.5-1%) and allowed to cool to ambient temperature (20-25° C.) over 4-6 h. The product was collected by filtration and washed with water (25 ml, 5 vol) then dried (18 h, 40-45° C.) to yield Form A of the free base of Compound I as an off-white crystalline solid. Form A is the imine tautomer of 4-[9-(terahydro-furan-3-yl)-8-(2,4,6-trifluoro-phenylamino)-9H-purin-2-ylamino]-cyclonhexan-1-ol having the structure: […]

The structures appear in SMILES notation.

With `O[C@H]1CC[C@H](Nc2ncc3nc(Nc4c(F)cc(F)cc4F)n([C@H]4CCOC4)c3n2)CC1` (stereo in doubt) [Form A of the Free Base of Compound I, 4-[9-(tetrahydro-furan-3-yl)-8-(2,4,6-trifluoro-phenylamino)-9H-purin-2-ylamino]-cyclohexan-1-ol], the stability during drying result is given as “stable”.

(Values after patent publication US8158635B2, “Solid forms comprising 4-[9-(tetrahydro-furan-3-yl)-8-(2,4,6-trifluoro-phenylamino)-9H-purin-2-ylamino]-cyclohexan-1-ol, compositions thereof, and uses therewith” (Signal Pharmaceuticals, LLC, priority 2006, dated 2012).)
